Consider two molecules from patent US20200253211A1, “PHOTODYNAMIC INHIBITION OF MICROBIAL PATHOGENS IN PLANTS” (SUNCOR ENERGY INC, priority 2017, published 2020).

The subject of assay [1] is Alternaria solani mycelia. Kind of assay: Photodynamic inhibition of Alternaria solani mycelia, percentage of dead samples after 7 days on agar. The format is cell-based. Here is the method: In the experiments, Alternaria solani mycelia were grown in liquid medium for 24 hours. Small spheres of the mycelia (average diameter 2 mm) were incubated for 100 minutes with 100 μM of Mg-Chlorophyllin with 0 to 5 mM of Disodium-EDTA. Samples were illuminated with 395 nm (fluence 106.6 J cm^−2) for 120 mins and the radial growth of mycelial patches after 7 days on agar medium was measured. A sample was considered dead, if there was no growth observable after 7 days on agar plates.
In the experiments, Alternaria solani mycelia were grown in liquid medium for 24 hours. Small spheres of the mycelia (average diameter 2 mm) were incubated for 100 minutes with Chlorin E6 with or without 5 mM of disodium-EDTA. Samples were illuminated with 395 nm (fluence 106.6 J cm^−2) for 120 mins and the radial growth of mycelial patches after 7 days on agar medium was measured. A sample was considered dead, if there was no growth observable after 7 days on agar plates.
The protocol for the PDI of A. solani was as follows (for Experiment 2 and 5): • Grow A. solani on tomato-agar for some days. • Transfer parts of the growing mycelium form the edge of the A. solani (no conidia) to liquid tomato medium. • Incubate overnight at 26° C. under constant agitation. • Transfer the grown mycelia (spheres of mycelia, approximately 2 mm in diameter) to 24 well plates. • Add 500 microlitres of the PS to the well (PBS for the Co and light only controls). • Incubate under agitation for 100 minutes. • Illuminate under agitation for 120 minutes. • Transfer the treated mycelia to tomato-agar plates and incubate for one week at room temperature. • Evaluate by counting of dead samples.

The next assay concerns Botrytis cinerea mycelia. Kind of assay: Photodynamic inhibition of Botrytis cinerea mycelia, percentage of dead samples after 7 days on agar. The format is cell-based. Here is the method:
In the experiments, Botrytis cinerea mycelia were grown in liquid medium for 48 hours. Small spheres of the mycelia (average diameter 2 mm) were incubated for 100 minutes with Mg-Chlorophyllin with or without 5 mM Disodium-EDTA. Samples were illuminated with 395 nm (fluence 106.6 J cm^−2) for 120 minutes and the radial growth of mycelial patches after 7 days on agar medium was measured. A sample was considered dead, if there was no growth observable after 7 days on agar plates.
In the experiments, Botrytis cinerea mycelia were grown in liquid medium for 48 hours. Small spheres of the mycelia (average diameter 2 mm) were incubated for 100 minutes with Mg-Chlorophyllin with or without 5 mM EDTA (calcium or disodium). Samples were illuminated with 395 nm (fluence 106.6 J cm^−2) for 120 min and the radial growth of mycelial patches after 7 days on agar medium was measured. A sample was considered dead, if there was no growth observable after 7 days on agar plates.
In the experiments, Botrytis cinerea mycelia were grown in liquid medium for 48 hours. Small spheres of the mycelia (average diameter 2 mm) were incubated for 100 minutes with Mg-Chlorophyllin with or without Baypure DS100 Samples were illuminated with 395 nm (fluence 106.6 J cm^−2) for 120 min and the radial growth of mycelial patches after 7 days on agar medium was measured. A sample was considered dead, if there was no growth observable after 7 days on agar plates.
The protocol for the PDI of B. cinerea was as follows (for experiments 3 and 4 described above): • Grow B. cinerea on malt-peptone-agar for some days. • Transfer spores of B. cinerea to liquid malt-peptone medium. • Incubate for 2-3 days at 26° C. under constant agitation. • Transfer the grown mycelia (spheres of mycelia, approximately 2 mm diameter) to 24 well plates. • Add 500 μl of the PS to the well. • Incubate under agitation for 100 minutes in the dark. • Illuminate under agitation for 120 minutes. • Transfer the treated mycelia to malt-peptone-agar plates and incubate for one week at room temperature. • Evaluate by counting of dead samples.

As for `O=C(O)CN(CCN(CC(=O)O)CC(=O)O)CC(=O)O` [EDTA, disodium EDTA], the dead % in assay [1] (Table 2, EDTA 5 mM alone, in light) is on record as 0%; in assay [1] (Table 2, EDTA 5 mM alone, no light), 0%; in assay [1] (Table 2, EDTA 50 mM alone, in light) it was 0%; in assay [1] (Table 2, EDTA 50 mM alone, no light), 0%; in assay [1] (Table 2, EDTA 100 mM alone, in light), 0%; in assay [1] (Table 2, EDTA 100 mM alone, no light), 11.1%. Further, the dead % worked out at 0% in assay [1] (Table 2, EDTA 500 mM alone, in light); 11.1% in assay [1] (Table 2, EDTA 500 mM alone, no light); 0% in assay [1] (Table 5, light, 5 mM Na-EDTA alone); 0% in assay [1] (Table 5, no light, 5 mM Na-EDTA alone); 0% in the assay on Botrytis cinerea mycelia (Table 3, EDTA 5 mM alone, in dark); 0% with Botrytis cinerea mycelia (Table 3, EDTA 5 mM alone, with light). This molecule returned a dead % in the assay on Botrytis cinerea mycelia (Table 4, EDTA-Na 5 mM alone, with light) of 0%.

For the molecule `C=Cc1c(C)c2cc3nc(c(CC(=O)[O-])c4[n-]c(cc5nc(cc1[n-]2)C(C)=C5CC)c(C)c4C(=O)[O-])C(CCC(=O)[O-])C3C.[Mg+2].[Na+].[Na+].[Na+]` (stereo not drawn) [Mg-Chlorophyllin, Mg-chlorophyllin], the dead % in assay [1] (Table 2, Mg-Chlorophyllin 100 μM without EDTA, in light) came to 11.5%; in the assay on Botrytis cinerea mycelia (Table 3, Mg-Chlorophyllin 10 μM alone, in light), 0%; with Botrytis cinerea mycelia (Table 3, Mg-Chlorophyllin 100 μM alone, in light) it was 0%; in the assay on Botrytis cinerea mycelia (Table 4, Mg-Chlorophyllin 100 μM alone, in light) it was 0%. In addition, the “Percentage of dead samples [%]” value in the assay on Botrytis cinerea mycelia (Table 27, MgChln 100 μM, with light) was 0%.
